In this assay the target is T1, bacteriophage T4 DNA polymerase (Enterobacteria phage T4, UniProt P04415).
T1 construct: made in house
T1 sequence (P04415 1-898): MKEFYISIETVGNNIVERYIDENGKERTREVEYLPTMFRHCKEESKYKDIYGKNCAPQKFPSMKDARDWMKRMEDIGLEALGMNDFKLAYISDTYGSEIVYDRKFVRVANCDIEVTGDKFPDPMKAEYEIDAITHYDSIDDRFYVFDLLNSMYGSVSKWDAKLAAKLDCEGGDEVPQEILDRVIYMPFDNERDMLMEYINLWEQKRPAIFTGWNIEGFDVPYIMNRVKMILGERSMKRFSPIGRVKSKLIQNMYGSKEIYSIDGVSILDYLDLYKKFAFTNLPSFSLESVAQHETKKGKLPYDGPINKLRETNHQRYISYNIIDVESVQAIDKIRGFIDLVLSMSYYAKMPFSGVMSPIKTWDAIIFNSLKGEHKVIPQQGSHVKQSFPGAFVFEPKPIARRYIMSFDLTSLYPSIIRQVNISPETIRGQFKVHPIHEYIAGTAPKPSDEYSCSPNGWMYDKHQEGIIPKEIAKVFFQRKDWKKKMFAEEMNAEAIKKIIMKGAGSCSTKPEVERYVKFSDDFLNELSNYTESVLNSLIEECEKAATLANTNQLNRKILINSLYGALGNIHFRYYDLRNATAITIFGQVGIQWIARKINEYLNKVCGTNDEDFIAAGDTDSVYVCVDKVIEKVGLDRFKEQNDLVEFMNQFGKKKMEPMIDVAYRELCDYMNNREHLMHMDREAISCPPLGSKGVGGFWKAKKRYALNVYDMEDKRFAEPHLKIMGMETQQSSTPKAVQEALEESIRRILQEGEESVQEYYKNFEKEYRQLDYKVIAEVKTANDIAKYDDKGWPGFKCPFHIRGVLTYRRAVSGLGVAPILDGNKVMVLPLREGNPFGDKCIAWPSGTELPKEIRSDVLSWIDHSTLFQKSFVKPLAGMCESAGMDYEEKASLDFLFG
In words: Counter-screen against bacteriophage T4 DNA polymerase. The assay is classed as biochemical. The following applies: for % inhibition T4 10' 2.5 / % inhibition T4 10' 5 / % inhibition T4 10' 10 / % inhibition T4 10' 20 / % inhibition T4 10' 40 / % inhibition T4 10' 80: read at 10'. The method, boiled down:
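IC50 values come from dose-response testing of each compound against T4 DNA polymerase. This B-family polymerase was purified in-house and used as the counter-screen.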

The structures appear in SMILES notation.

As for `COc1ccc(C(=O)N2CCc3c(nc4cc(-c5ccccc5Cl)[nH]n4c3=O)C2)cn1` [Molecule 26, COc1ccc(cn1)C(=O)N1CCc2c(C1)nc1n(c2=O)[nH]c(c1)c1ccccc1Cl], the “% inhibition T4 10'” value is reported as -4% (DRC-2, concentration 2.5) and -17% (DRC-2, concentration 10). For the same compound, the “% inhibition T4 40'” value is -4% (DRC-2, concentration 2.5) and -23% (DRC-2, concentration 40). Besides, the “% inhibition T4 90'” value is listed as -10% (DRC-2, concentration 5) and -23% (DRC-2, concentration 80). Moreover, the “% inhibition T4 180'” value (DRC-2, concentration 10) is recorded as -10%; the “% inhibition T4 180'” value (DRC-2, concentration 40) is -17%; the “% inhibition T4 180'” value (DRC-2, concentration 80) is reported as -17%.
As to `N#CC(=NNc1cc(C(F)(F)F)cc(C(F)(F)F)c1)C(=O)c1ccco1` [KU0264276], the “% inhibition T4 10'” value is, setting by setting: (DRC-2, concentration 2.5) 9%; (DRC-2, concentration 5) 9%; (DRC-2, concentration 20) 13%; (DRC-2, concentration 40) 19%. Besides, the “% inhibition T4 40'” value was determined as 7% (DRC-2, concentration 2.5); 9% (DRC-2, concentration 5); 13% (DRC-2, concentration 10); 13% (DRC-2, concentration 20); 19% (DRC-2, concentration 40); 19% (DRC-2, concentration 80). Besides, the “% inhibition T4 90'” value (DRC-2, concentration 5) was 7%. Also, the “% inhibition T4 180'” value is 13% (DRC-2, concentration 40) and 19% (DRC-2, concentration 80).
On to `C#CC(C=CC)OC(=O)c1ccccc1C(=O)O` (stereo not drawn) [Molecule 61, CC=CC(OC(=O)c1ccccc1C(=O)O)C#C], for which the “% inhibition T4 10' 2.5” value reads like this: (DRC-1, concentration 2.5) 9.3785%; (DRC-2, concentration 2.5) -4.4%. Besides, the “% inhibition T4 10' 5” value runs as follows: (DRC-1, concentration 5) 11.31%; (DRC-2, concentration 5) -3%. Also, the “% inhibition T4 10' 10” value (DRC-1, concentration 10) is given as 22.4398% and the “% inhibition T4 10' 10” value (DRC-2, concentration 10) was determined as 4%. Further, the “% inhibition T4 10' 20” value reads like this: (DRC-1, concentration 20) 21.3205%; (DRC-2, concentration 20) 6.52%. The “% inhibition T4 10' 40” value by setting is: (DRC-1, concentration 40) 28.2089%; (DRC-2, concentration 40) 12%. The “% inhibition T4 10' 80” value by setting is: (DRC-1, concentration 80) 28.2741%; (DRC-2, concentration 80) 8%. The “% inhibition T4 70' 2.5” value (DRC-1, read at 70', concentration 2.5) was 5.999%. The “% inhibition T4 70' 5” value (DRC-1, read at 70', concentration 5) is on record as 5.822%. The “% inhibition T4 70' 10” value (DRC-1, read at 70', concentration 10) came out at 15.1139%. The “% inhibition T4 70' 20” value (DRC-1, read at 70', concentration 20) is 11.2187%. Besides, the “% inhibition T4 70' 40” value (DRC-1, read at 70', concentration 40) was 17.6446%. The “% inhibition T4 70' 80” value (DRC-1, read at 70', concentration 80) came to 16.7862%. In addition, the “% inhibition T4 130' 2.5” value (DRC-1, read at 130', concentration 2.5) worked out at 3.358%. The “% inhibition T4 130' 5” value (DRC-1, read at 130', concentration 5) was 2.079%. The “% inhibition T4 130' 10” value (DRC-1, read at 130', concentration 10) is 10.4202%. In addition, the “% inhibition T4 130' 20” value (DRC-1, read at 130', concentration 20) came out at 6.447%. Under “DRC-1, read at 130', concentration 40”, the “% inhibition T4 130' 40” value turned out to be 13.4652%. For the setting “DRC-1, read at 130', concentration 80”, the “% inhibition T4 130' 80” value is recorded as 12.4594%. The “% inhibition T4 40' 2.5” value (DRC-2, read at 40', concentration 2.5) was -4.37%. Besides, where the note is “DRC-2, read at 40', concentration 5”, the “% inhibition T4 40' 5” value was -3.69%. The “% inhibition T4 40' 10” value (DRC-2, read at 40', concentration 10) is reported as 2%. In addition, where the note is “DRC-2, read at 40', concentration 20”, the “% inhibition T4 40' 20” value came to 3.35%. Also, the “% inhibition T4 40' 40” value (DRC-2, read at 40', concentration 40) is 9%. The “% inhibition T4 40' 80” value (DRC-2, read at 40', concentration 80) was 4.65%. Moreover, the “% inhibition T4 90' 2.5” value (DRC-2, read at 90', concentration 2.5) was -3.79%. Also, the “% inhibition T4 90' 5” value (DRC-2, read at 90', concentration 5) is given as -6%. Further, for the setting “DRC-2, read at 90', concentration 10”, the “% inhibition T4 90' 10” value is given as 0.277%. Further, the “% inhibition T4 90' 20” value (DRC-2, read at 90', concentration 20) came to 0.217%. The “% inhibition T4 90' 40” value (DRC-2, read at 90', concentration 40) is reported as 6%. Moreover, the “% inhibition T4 90' 80” value (DRC-2, read at 90', concentration 80) stood at 0.315%. Moreover, the “% inhibition T4 180' 2.5” value (DRC-2, read at 180', concentration 2.5) is -5.62%. The “% inhibition T4 180' 5” value (DRC-2, read at 180', concentration 5) was -11%. The “% inhibition T4 180' 10” value (DRC-2, read at 180', concentration 10) is listed as -7%. Besides, where the note is “DRC-2, read at 180', concentration 20”, the “% inhibition T4 180' 20” value is given as -5.56%. Under “DRC-2, read at 180', concentration 40”, the “% inhibition T4 180' 40” value is recorded as -0.544%. For the same compound, where the note is “DRC-2, read at 180', concentration 80”, the “% inhibition T4 180' 80” value was -3.3%.
On to `COc1cccc(Oc2c(C(F)(F)F)oc3cc(OC(=O)N(C)C)ccc3c2=O)c1` [Molecule 52, COc1cccc(c1)Oc1c(=O)c2ccc(cc2oc1C(F)(F)F)OC(=O)N(C)C], for which the “% inhibition T4 10'” value amounted to 10% (DRC-2, concentration 20) and 17% (DRC-2, concentration 40). The “% inhibition T4 40'” value is reported as 7% (DRC-2, concentration 10) and 10% (DRC-2, concentration 20). The “% inhibition T4 90'” value runs as follows: (DRC-2, concentration 5) 3%; (DRC-2, concentration 10) 7%. The “% inhibition T4 180'” value was determined as 3% (DRC-2, concentration 20) and 17% (DRC-2, concentration 80).
For the compound `COc1ccc(-c2cc3nc4c(c(=O)n3[nH]2)CCN(C(=O)CCc2ccccc2)C4)cc1` [Molecule 17, COc1ccc(cc1)c1[nH]n2c(c1)nc1c(c2=O)CCN(C1)C(=O)CCc1ccccc1], the “% inhibition T4 10'” value reads like this: (DRC-2, concentration 2.5) -22%; (DRC-2, concentration 5) -46%; (DRC-2, concentration 10) -38%; (DRC-2, concentration 20) -44%; (DRC-2, concentration 40) -44%. Also, the “% inhibition T4 40'” value was -38% (DRC-2, concentration 5) and -30% (DRC-2, concentration 10). Further, the “% inhibition T4 90'” value reads like this: (DRC-2, concentration 10) -25%; (DRC-2, concentration 40) -30%; (DRC-2, concentration 80) -46%. In addition, the “% inhibition T4 180'” value (DRC-2, concentration 2.5) was -13%; the “% inhibition T4 180'” value (DRC-2, concentration 10) is on record as -22%; the “% inhibition T4 180'” value (DRC-2, concentration 20) is on record as -23%; the “% inhibition T4 180'” value (DRC-2, concentration 40) is on record as -25%.
In the case of `O=C(Cn1ccc2c(=O)[nH]ccc21)Nc1cc(F)ccc1F` [Molecule 42, O=C(Cn1ccc2c1cc[nH]c2=O)Nc1cc(F)ccc1F], the “% inhibition T4 10'” value is listed as -1.82% (DRC-2, concentration 2.5); -13% (DRC-2, concentration 5); -4% (DRC-2, concentration 20); -13% (DRC-2, concentration 80). In addition, the “% inhibition T4 40'” value is on record as -4% (DRC-2, concentration 20) and -13% (DRC-2, concentration 80). Besides, the “% inhibition T4 180'” value was -1.82% (DRC-2, concentration 2.5) and -13% (DRC-2, concentration 80).
Turning to `O=C(Nc1ccc2c(c1)Cc1cc(NC(=O)c3ccco3)ccc1-2)c1ccco1` [KU0038977], under “DRC-2, concentration 80”, the “% inhibition T4 10'” value turned out to be 20% and the “% inhibition T4 90'” value was 35%. Also, under “DRC-2, concentration 20”, the “% inhibition T4 40'” value is reported as 25%, the “% inhibition T4 90'” value amounted to 25% and the “% inhibition T4 180'” value came to 20%. Further, where the note is “DRC-2, concentration 40”, the “% inhibition T4 40'” value was determined as 35% and the “% inhibition T4 90'” value is 35%.
Turning to `CN(C)S(=O)(=O)Oc1ccc(-c2noc(-c3ccc(Oc4cc(Cl)cc(Cl)c4)o3)n2)cc1` [KU0263859], the “% inhibition T4 10'” value by setting is: (DRC-2, concentration 5) 17%; (DRC-2, concentration 10) 35%; (DRC-2, concentration 20) 35%. Besides, the “% inhibition T4 40'” value was found to be 17% (DRC-2, concentration 5); 38% (DRC-2, concentration 20); 43% (DRC-2, concentration 40); 43% (DRC-2, concentration 80). Also, the “% inhibition T4 90'” value (DRC-2, concentration 20) was 35%. Moreover, the “% inhibition T4 180'” value reads like this: (DRC-2, concentration 40) 38%; (DRC-2, concentration 80) 43%.
